Assay results from PubChem BioAssay (NCI).
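In this assay, cells in 96-well plates receive the compound at five concentrations for 48 hours. Endpoints are linearly interpolated between the surrounding concentrations. The concentration for full growth arrest is given as TGI.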

Columns and labels:
Test in all cases: growth of human tumour cells (NCI), 48 h
[1] = tested on: A498 renal
[2] = tested on: BT-549 breast
[3] = tested on: DLD-1 colon
[4] = tested on: HCT-116 colon
[5] = tested on: HOP-18 NSCLC
[6] = tested on: HOP-62 NSCLC
[7] = tested on: HOP-92 NSCLC
[8] = tested on: KM20L2 colon
[9] = tested on: M19-MEL melanoma
[10] = tested on: PC-3 prostate
[11] = tested on: SNB-19 CNS
[12] = tested on: SNB-78 CNS
[13] = tested on: UACC-257 melanoma

## CC1=C2C(=O)[C@H]3[C@@H](CC=C4C[C@@H](O)CC[C@@]43C)[C@@H]2CC[C@]12O[C@@H]1C[C@H](C)CN[C@H]1[C@H]2C
[1]
  TGI: > 57.9 µM
[2]
  TGI: > 100 µM
[3]
  TGI: 97.1 µM
[4]
  TGI: > 68.5 µM
[5]
  TGI: 31.3 µM
[6]
  TGI: > 55.2 µM
[7]
  TGI: 26.6 µM
[8]
  TGI: 93.2 µM
[9]
  TGI: 85.3 µM
[10]
  TGI: > 100 µM
[11]
  TGI: > 57.6 µM
[12]
  TGI: 39.8 µM
[13]
  TGI: > 71.5 µM

## COC(=O)C(CCCC1(c2ccccc2)OCCO1)C(C)=O (stereo not given)
[1]
  TGI: > 100 µM
[3]
  TGI: > 100 µM
[4]
  TGI: > 100 µM
[5]
  TGI: > 100 µM
[6]
  TGI: > 100 µM
[8]
  TGI: > 100 µM
[9]
  TGI: > 100 µM
[11]
  TGI: > 100 µM
[12]
  TGI: > 100 µM
[13]
  TGI: > 100 µM

## CC(C)(C)c1nc2c(o1)C(=O)c1ccccc1C2=O
[1]
  TGI: 11.5 µM
[2]
  TGI: 2.84 µM
[3]
  TGI: 14.5 µM
[4]
  TGI: 2.87 µM
[5]
  TGI: 18.9 µM
[6]
  TGI: 6.34 µM
[7]
  TGI: 6.44 µM
[8]
  TGI: 48.2 µM
[9]
  TGI: 2.84 µM
[10]
  TGI: 2.22 µM
[11]
  TGI: 9.81 µM
[12]
  TGI: 39.1 µM
[13]
  TGI: 1.43 µM

## COc1nc(SC)nc2c1cnn2C1OC(C(O)CO)C(OC)C1O (stereo not given)
[1]
  TGI: > 100 µM
[3]
  TGI: > 100 µM
[4]
  TGI: > 100 µM
[5]
  TGI: > 100 µM
[6]
  TGI: > 100 µM
[8]
  TGI: > 100 µM
[9]
  TGI: > 100 µM
[11]
  TGI: > 100 µM
[12]
  TGI: > 100 µM
[13]
  TGI: > 100 µM

## CCOC(=O)c1c(C)c2c(n1C)CCc1cn[nH]c1-2
[1]
  TGI: > 100 µM
[3]
  TGI: > 100 µM
[4]
  TGI: > 100 µM
[5]
  TGI: > 100 µM
[6]
  TGI: > 100 µM
[7]
  TGI: > 100 µM
[8]
  TGI: > 100 µM
[9]
  TGI: > 100 µM
[11]
  TGI: > 100 µM
[12]
  TGI: > 100 µM
[13]
  TGI: > 100 µM

## Nc1nc(SCCNC(=O)CCc2ccc(O)cc2)nc2c1ncn2C1OC(CO)C(O)C1O (stereo not given)
[1]
  TGI: > 203 µM
[3]
  TGI: > 203 µM
[4]
  TGI: > 203 µM
[5]
  TGI: > 203 µM
[6]
  TGI: > 203 µM
[7]
  TGI: > 203 µM
[8]
  TGI: > 203 µM
[9]
  TGI: > 203 µM
[11]
  TGI: > 203 µM
[12]
  TGI: > 203 µM
[13]
  TGI: > 203 µM

## COc1ccc(C2C3C(=O)C=CC(=O)C3[C@@H]2C)cc1OC (stereo not given in full)
[1]
  TGI: > 100 µM
[3]
  TGI: > 100 µM
[4]
  TGI: > 100 µM
[5]
  TGI: > 100 µM
[6]
  TGI: > 100 µM
[7]
  TGI: > 100 µM
[8]
  TGI: > 100 µM
[9]
  TGI: > 100 µM
[11]
  TGI: > 100 µM
[12]
  TGI: > 100 µM
[13]
  TGI: > 100 µM

## Clc1ccc(SCCSCCCCCCCCCCSCCSc2ccc(Cl)cc2)cc1
[1]
  TGI: > 100 µM
[3]
  TGI: > 100 µM
[5]
  TGI: > 100 µM
[6]
  TGI: > 100 µM
[7]
  TGI: > 100 µM
[8]
  TGI: > 100 µM
[11]
  TGI: > 100 µM
[12]
  TGI: > 100 µM
[13]
  TGI: > 100 µM

## COC(=O)C1=C(C(=O)OC)C2(OC(C)=O)c3ccccc3-c3ccccc3C12 (stereo not given)
[1]
  TGI: 32 µM
[3]
  TGI: 3.28 µM
[4]
  TGI: 7.98 µM
[5]
  TGI: 9.5 µM
[6]
  TGI: 48.3 µM
[7]
  TGI: 3.67 µM
[8]
  TGI: 12.8 µM
[9]
  TGI: 8.79 µM
[11]
  TGI: > 55 µM
[12]
  TGI: 10.8 µM
[13]
  TGI: 11.8 µM

## COc1cc2c(c(C)c1O)[C@H]1COc3ccccc3[C@H]1O2
[1]
  TGI: > 100 µM
[3]
  TGI: > 100 µM
[4]
  TGI: 18.7 µM
[5]
  TGI: 35.6 µM
[6]
  TGI: > 100 µM
[7]
  TGI: 47.6 µM
[8]
  TGI: 63.9 µM
[9]
  TGI: 25 µM
[11]
  TGI: 26.7 µM
[12]
  TGI: 80.7 µM
[13]
  TGI: 52.9 µM
